# Values of other authors, collected in patent publication US12403129B2, “Isotope-enriched 3-amino-1-propanesulfonic acid derivatives for the treatment of cerebrovascular disease” (RISEN (SUZHOU) PHARMA TECH CO., LTD., priority 2021, dated 2025).
# Experiments:
# [1] = produces three potential metabolites; major metabolite 2-carboxyethanesulfonic acid; cited from earlier work
# [2] = molecular target: interaction between PSD95 and nNOS (Homo sapiens, UniProt P29475+P78352); details: by blocking the interaction between PSD95 and nNOS; cited from earlier work
# interaction between PSD95 and nNOS, sequence (P78352 whole entry): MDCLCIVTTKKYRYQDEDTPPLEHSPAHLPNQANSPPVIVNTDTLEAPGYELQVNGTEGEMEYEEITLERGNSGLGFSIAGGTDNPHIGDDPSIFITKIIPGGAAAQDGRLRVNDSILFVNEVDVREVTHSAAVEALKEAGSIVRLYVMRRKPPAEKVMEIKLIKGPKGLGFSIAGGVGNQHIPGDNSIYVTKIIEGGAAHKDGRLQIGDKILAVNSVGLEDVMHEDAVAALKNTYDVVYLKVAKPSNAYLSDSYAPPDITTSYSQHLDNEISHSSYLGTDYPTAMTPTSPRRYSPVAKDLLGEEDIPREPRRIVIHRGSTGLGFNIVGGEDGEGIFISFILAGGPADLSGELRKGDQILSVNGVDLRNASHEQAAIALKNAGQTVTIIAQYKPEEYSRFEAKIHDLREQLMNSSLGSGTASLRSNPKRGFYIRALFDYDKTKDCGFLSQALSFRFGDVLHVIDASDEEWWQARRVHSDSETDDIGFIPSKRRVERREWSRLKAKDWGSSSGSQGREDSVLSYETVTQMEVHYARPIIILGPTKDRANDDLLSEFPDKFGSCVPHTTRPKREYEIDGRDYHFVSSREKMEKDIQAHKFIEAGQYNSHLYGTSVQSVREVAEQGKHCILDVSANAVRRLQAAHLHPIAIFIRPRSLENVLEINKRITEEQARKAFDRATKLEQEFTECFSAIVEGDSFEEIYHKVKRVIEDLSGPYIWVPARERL
# interaction between PSD95 and nNOS, sequence (P29475 whole entry): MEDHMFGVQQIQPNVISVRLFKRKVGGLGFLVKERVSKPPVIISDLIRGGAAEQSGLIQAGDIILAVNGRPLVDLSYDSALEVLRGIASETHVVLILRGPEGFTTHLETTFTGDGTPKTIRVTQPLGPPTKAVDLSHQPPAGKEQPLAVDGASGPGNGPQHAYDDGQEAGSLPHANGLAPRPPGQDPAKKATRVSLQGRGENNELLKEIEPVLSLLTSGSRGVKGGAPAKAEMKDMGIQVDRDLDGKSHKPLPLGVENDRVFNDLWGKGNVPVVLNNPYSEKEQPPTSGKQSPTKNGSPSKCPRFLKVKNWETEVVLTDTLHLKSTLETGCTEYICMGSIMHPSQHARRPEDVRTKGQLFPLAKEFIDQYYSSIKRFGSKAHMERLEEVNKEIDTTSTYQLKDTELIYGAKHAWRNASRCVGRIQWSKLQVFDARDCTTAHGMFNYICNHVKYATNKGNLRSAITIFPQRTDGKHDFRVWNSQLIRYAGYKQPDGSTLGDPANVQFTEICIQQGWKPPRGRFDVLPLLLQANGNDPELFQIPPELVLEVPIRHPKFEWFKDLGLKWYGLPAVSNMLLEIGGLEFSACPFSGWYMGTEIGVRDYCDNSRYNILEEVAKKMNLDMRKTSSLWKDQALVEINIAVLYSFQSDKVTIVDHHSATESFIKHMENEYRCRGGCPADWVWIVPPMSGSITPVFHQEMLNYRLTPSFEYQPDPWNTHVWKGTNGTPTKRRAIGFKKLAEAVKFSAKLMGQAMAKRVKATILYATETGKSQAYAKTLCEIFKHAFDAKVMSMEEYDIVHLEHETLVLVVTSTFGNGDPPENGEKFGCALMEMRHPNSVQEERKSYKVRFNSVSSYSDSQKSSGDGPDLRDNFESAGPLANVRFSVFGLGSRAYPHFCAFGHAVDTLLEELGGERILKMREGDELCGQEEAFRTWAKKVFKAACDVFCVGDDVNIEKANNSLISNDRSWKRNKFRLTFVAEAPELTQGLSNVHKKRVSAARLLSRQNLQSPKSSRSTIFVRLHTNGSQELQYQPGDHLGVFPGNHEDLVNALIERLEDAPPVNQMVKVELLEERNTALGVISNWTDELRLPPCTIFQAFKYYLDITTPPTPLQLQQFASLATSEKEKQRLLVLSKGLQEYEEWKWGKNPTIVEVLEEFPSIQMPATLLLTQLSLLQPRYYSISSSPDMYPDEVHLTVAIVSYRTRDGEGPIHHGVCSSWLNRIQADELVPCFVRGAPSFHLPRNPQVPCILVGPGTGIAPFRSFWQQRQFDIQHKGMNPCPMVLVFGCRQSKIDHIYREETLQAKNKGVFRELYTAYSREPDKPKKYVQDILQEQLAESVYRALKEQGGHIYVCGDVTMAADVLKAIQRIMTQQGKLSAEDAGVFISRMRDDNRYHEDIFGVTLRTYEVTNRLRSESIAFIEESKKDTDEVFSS
compound,measurement,setting,value
"NCCCS(=O)(=O)O [Tramiprosate, 3-amino-1-propanesulfonic acid]",metabolism in vivo,[1],extensively metabolized
same,protection of neurons from ischemic stroke,[2],can protect neurons from ischemic stroke
